Measured values reported in patent US8158647B2, “Substituted pyrrolopyridines and pyrazolopyridines as kinase modulators” (SGX Pharmaceuticals, Inc., priority 2007, dated 2012).

How the values were obtained:
[1] = molecular target: T1, purified and unphosphorylated T315I Abl kinase domain (ABL_T315I_0P) (Mus musculus, UniProt P00520, T315I); assay: c-Abl T315I (unphosphorylated kinase domain) pyruvate kinase/lactate dehydrogenase coupled enzyme assay; type: biochemical; conditions: 10 μM ATP
T1 construct: The c-Abl T3151 KD (kinase domain) was purified as follows; Met-Ser-Leu (vector-derived residues) (N); made in house; host or cells: E. coli BL21(DE3) strains (Codon+RIL, or pSA0145 for the lambda phosphatase co-expression plasmid)
T1 sequence (P00520 242-493 T315I limits assumed): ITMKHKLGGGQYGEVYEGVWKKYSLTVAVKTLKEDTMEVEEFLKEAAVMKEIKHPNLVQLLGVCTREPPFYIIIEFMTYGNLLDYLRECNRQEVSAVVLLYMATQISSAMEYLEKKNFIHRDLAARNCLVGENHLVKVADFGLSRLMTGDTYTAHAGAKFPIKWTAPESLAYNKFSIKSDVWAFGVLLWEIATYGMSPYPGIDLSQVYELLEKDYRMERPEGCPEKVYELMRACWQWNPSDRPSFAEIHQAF

ABL T315I BAF3 cells = molecular target: T2, ABL T315I BAF3 cells (Homo sapiens, UniProt P00519, T315I, cells depend on it); assay: 96-well XTT cell survival assay, BaF3 ABL T315I; type: cell-based; conditions: 72 hours, read-out: CELL BIO ABL T315I BAF3 XTT (IC50)
T2 construct: ABL T315I BAF3; fused on or other part: P11274 (Breakpoint cluster region protein)
Summary of the method: (§1)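 Ba/F3 cells in RPMI 1640 with 10% FBS (IL-3 medium for maintenance) were seeded at 5000-8000 cells/well and exposed to compound dilutions in duplicate for 72 h at 37° C. Viability read by XTT/PMS, absorbance 405 nm minus 650 nm after 2-6 h.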

ABL P210WT BAF3 cells = molecular target: T3, ABL P210WT BAF3 cells (Homo sapiens, UniProt P00519); assay: 96-well XTT cell survival assay, BaF3 ABL P210WT; type: cell-based; conditions: ABL P210 WT, 72 hours, read-out: CELL BIO ABL P210WT BAF3 XTT (IC50)
T3 construct: ABL P210WT BAF3; fused on or other part: P11274 (Breakpoint cluster region protein)
Summary of the method: as §1

| Structure (SMILES) | ABL_T315I_0P (IC50) [1] | GI50 (ABL T315I BAF3 cells) | GI50 (ABL P210WT BAF3 cells) |
| --- | --- | --- | --- |
| COc1ccccc1-c1c[nH]c2ncc(-c3cncc(CC(=O)N(C)C)c3)c(Cl)c12 [2-{5-[4-Chloro-3-(2-methoxy-phenyl)-1H-pyrrolo[2,3-b]pyridin-5-yl]-pyridin-3-yl}-N,N-dimethyl-acetamide] | D (<0.01 μM) | 0.01 to 0.1 µM | 0.01 to 0.1 µM |
| COc1ncccc1-c1c[nH]c2ncc(-c3cncc(C(O)C(=O)N(C)C)c3)c(Cl)c12 (stereo not drawn) [2-{5-[4-Chloro-3-(2-methoxy-pyridin-3-yl)-1H-pyrrolo[2,3-b]pyridin-5-yl]-pyridin-3-yl}-2-hydroxy-N,N-dimethyl-acetamide] | D (<0.01 μM) | 0.1 to 1 µM | 0.01 to 0.1 µM |
| COc1cnccc1-c1c[nH]c2ncc(-c3cncc(C(O)C(=O)N(C)C)c3)c(Cl)c12 (stereo not drawn) [2-{5-[4-Chloro-3-(3-methoxy-pyridin-4-yl)-1H-pyrrolo[2,3-b]pyridin-5-yl]-pyridin-3-yl}-2-hydroxy-N,N-dimethyl-acetamide] | D (<0.01 μM) | > 1 µM | > 1 µM |
| CN(C)C(=O)C(O)c1cncc(-c2cnc3[nH]cc(-c4ccc(F)cc4)c3c2Cl)c1 (stereo not drawn) [2-{5-[4-Chloro-3-(4-fluoro-phenyl)-1H-pyrrolo[2,3-b]pyridin-5-yl]-pyridin-3-yl}-2-hydroxy-N,N-dimethyl-acetamide] | C (0.1-0.01 μM) | > 1 µM | 0.1 to 1 µM |
| COc1ccncc1-c1c[nH]c2ncc(-c3cncc(C(O)C(=O)N(C)C)c3)c(Cl)c12 (stereo not drawn) [2-{5-[4-Chloro-3-(4-methoxy-pyridin-3-yl)-1H-pyrrolo[2,3-b]pyridin-5-yl]-pyridin-3-yl}-2-hydroxy-N,N-dimethyl-acetamide] | D (<0.01 μM) | 0.1 to 1 µM | 0.1 to 1 µM |
| COc1ccccc1-c1c[nH]c2ncc(-c3cncc(C(O)C(=O)N(C)C)c3)c(C#N)c12 (stereo not drawn) [2-{5-[4-Cyano-3-(2-methoxy-phenyl)-1H-pyrrolo[2,3-b]pyridin-5-yl]-pyridin-3-yl}-2-hydroxy-N,N-dimethyl-acetamide] | D (<0.01 μM) | > 1 µM | > 1 µM |
| CCc1c(-c2cncc(C(O)C(=O)N(C)C)c2)cnc2[nH]cc(-c3ccccc3OC)c12 (stereo not drawn) [2-{5-[4-Ethyl-3-(2-methoxy-phenyl)-1H-pyrrolo[2,3-b]pyridin-5-yl]-pyridin-3-yl}-2-hydroxy-N,N-dimethyl-acetamide] | D (<0.01 μM) | 0.1 to 1 µM | 0.1 to 1 µM |
| COc1ccccc1-c1c[nH]c2ncc(-c3cncc(C(=O)C(=O)N(C)C)c3)c(OC)c12 [2-{5-[4-Methoxy-3-(2-methoxy-phenyl)-1H-pyrrolo[2,3-b]pyridin-5-yl]-pyridin-3-yl}-N,N-dimethyl-2-oxo-acetamide] | D (<0.01 μM) | 0.01 to 0.1 µM | 0.1 to 1 µM |
| COc1ccccc1-c1c[nH]c2ncc(Br)c(N(C)CCO)c12 [2-{[5-Bromo-3-(2-methoxy-phenyl)-1H-pyrrolo[2,3-b]pyridin-4-yl]-methyl-amino}-ethanol] | C (0.1-0.01 μM) | > 1 µM | > 1 µM |
| CN(C)C(=O)c1nc(-c2cnc3[nH]cc(-c4ccccc4)c3c2Cl)cnc1N [3-Amino-6-(4-chloro-3-phenyl-1H-pyrrolo[2,3-b]pyridin-5-yl)-pyrazine-2-carboxylic acid dimethylamide] | D (<0.01 μM) | 0.1 to 1 µM | 0.1 to 1 µM |
| COc1ccccc1-c1c[nH]c2ncc(-c3cccc(C(=O)N(C)C)c3)c(C)c12 [3-[3-(2-Methoxy-phenyl)-4-methyl-1H-pyrrolo[2,3-b]pyridin-5-yl]-N,N-dimethyl-benzamide] | D (<0.01 μM) | 0.01 to 0.1 µM | 0.01 to 0.1 µM |
| COc1ccccc1-c1c[nH]c2ncc(-c3cccc(C(=O)N(C)C)c3)c(Cl)c12 [3-[4-Chloro-3-(2-methoxy-phenyl)-1H-pyrrolo[2,3-b]pyridin-5-yl]-N,N-dimethyl-benzamide] | D (<0.01 μM) | 0.01 to 0.1 µM | 0.01 to 0.1 µM |
| CN(C)C(=O)c1nc(-c2cnc3[nH]cc(-c4ccc(F)cc4)c3c2Cl)cnc1N [3-amino-6-[4-chloro-3-(4-fluoro-phenyl)-1H-pyrrolo[2,3-b]pyridin-5-yl]-pyrazine-2-carboxylic acid dimethylamide] | C (0.1-0.01 μM) | 0.1 to 1 µM | 0.1 to 1 µM |
| COc1ccc(F)cc1-c1c[nH]c2ncc(-c3cnc(N)c(C(=O)N(C)C)n3)c(Cl)c12 [3-amino-6-[4-chloro-3-(5-fluoro-2-methoxy-phenyl)-1H-pyrrolo[2,3-b]pyridin-5-yl]-pyrazine-2-carboxylic acid dimethylamide] | D (<0.01 μM) | 0.01 to 0.1 µM | < 0.01 µM |
| CN(C)C(=O)c1cncc(-c2cnc3[nH]nc(-c4ccccc4)c3c2Cl)c1 [5-(4-Chloro-3-phenyl-1H-pyrazolo[3,4-b]pyridin-5-yl)-N,N-dimethyl-nicotinamide] | B (1.0-0.1 μM) | > 1 µM | > 1 µM |
| CN(C)C(=O)c1cncc(-c2cnc3[nH]cc(-c4ccccc4)c3c2Cl)c1 [5-(4-Chloro-3-phenyl-1H-pyrrolo[2,3-b]pyridin-5-yl)-N,N-dimethyl-nicotinamide] | D (<0.01 μM) | > 1 µM | > 1 µM |
| COc1ccccc1-c1c[nH]c2ncc(Br)c(N)c12 [5-Bromo-3-(2-methoxy-phenyl)-1H-pyrrolo[2,3-b]pyridin-4-ylamine] | C (0.1-0.01 μM) | > 1 µM | > 1 µM |
| COc1ccccc1-c1c[nH]c2ncc(Br)c(SC)c12 [5-Bromo-3-(2-methoxy-phenyl)-4-methylsulfanyl-1H-pyrrolo[2,3b]pyridine] | B (1.0-0.1 μM) | > 1 µM | > 1 µM |
| CN(C)C(=O)c1cncc(-c2cnc3[nH]cc(-c4cccc(F)c4F)c3c2Cl)c1 [5-[4-Chloro-3-(2,3-difluoro-phenyl)-1H-pyrrolo[2,3-b]pyridin-5-yl]-N,N-dimethyl-nicotinamide] | D (<0.01 μM) | 0.1 to 1 µM | 0.1 to 1 µM |
| CN(C)C(=O)c1cncc(-c2cnc3[nH]cc(-c4ccc(F)cc4F)c3c2Cl)c1 [5-[4-Chloro-3-(2,4-difluoro-phenyl)-1H-pyrrolo[2,3-b]pyridin-5-yl]-N,N-dimethyl-nicotinamide] | C (0.1-0.01 μM) | > 1 µM | > 1 µM |
| CN(C)C(=O)c1cncc(-c2cnc3[nH]cc(-c4ccccc4Cl)c3c2Cl)c1 [5-[4-Chloro-3-(2-chloro-phenyl)-1H-pyrrolo[2,3-b]pyridin-5-yl]-N,N-dimethyl-nicotinamide] | D (<0.01 μM) | > 1 µM | 0.1 to 1 µM |
| CNC(=O)c1cncc(-c2cnc3[nH]cc(-c4ccccc4F)c3c2Cl)c1 [5-[4-Chloro-3-(2-fluoro-phenyl)-1H-pyrrolo[2,3-b]pyridin-5-yl]-N-methyl-nicotinamide] | C (0.1-0.01 μM) | > 1 µM | > 1 µM |
| CSc1ccccc1-c1c[nH]c2ncc(-c3cncc(C(=O)N(C)C)c3)c(Cl)c12 [5-[4-Chloro-3-(2-methylsulfanyl-phenyl)-1H-pyrrolo[2,3-b]pyridin-5-yl]-N,N-dimethyl-nicotinamide] | D (<0.01 μM) | > 1 µM | > 1 µM |
